# Source: patent publication US5453440A, “Peptide mimics useful as platelet aggregation inhibitors” (G. D. Searle & Co., priority 1993, dated 1995)
# Experiments:
# [1] = system: fibrinogen binding to platelets; test: Fibrinogen binding assay (125I-fibrinogen binding to ADP-activated human platelets); details: ADP 10 μM, 125I-fibrinogen 0.3 μM, 40 min at 37° C.
# Description: Fibrinogen binding was performed essentially as described by Plow et al., Blood 70, 110-115 (1987). Briefly, blood from humans who had not been given any antiplatelet drugs in the previous two weeks was collected into 1/10th volume of CCD buffer (100 mM sodium citrates, 136 mM glucose, pH 6.5). The blood was centrifuged for 3 min at 1000×g and platelet rich plasma was transferred to a plastic tube with a plastic pipet and placed on ice. After 15 minutes, 1/2 volume of ice cold CCD buffer was added and the sample was centrifuged at 900×g for 10 min at 2° C. The supernatant was decanted and the platelet pellet was gently resuspended in 1/2 the original volume of ice cold modified Tyrode's buffer (137 mM NaCl, 2.6 mM KCl, 12 mM NaHCO3, 5.5 mM glucose, 15 mM HEPES, 0.5% BSA, pH 7.4). After incubating for 30 minutes at 37° C., the platelet count was adjusted to 4×10^8 platelets/ml with modified Tyrode's buffer. To test samples (final concentration=1×10^8 platelets/ml) were added in sequence: ADP (10 μM), CaCl2 (2 mM), test compound, and ^125 I-fibrinogen (0.3 μM) to the aforesaid final concentrations in a volume of 200 μ1. […] Specific binding was determined in each test by subtracting from the total binding the amount of ^125 I-fibrinogen bound in the presence of a 60-fold excess of unlabeled fibrinogen. […]
# [2] = system: platelet aggregation in dog PRP; test: In-vitro platelet aggregation in PRP (ADP-induced, dog platelet-rich plasma); format: cell-based; details: Canis lupus familiaris, ADP 50 μm final concentration, 37° C., 1 minute preincubation
# Description: Healthy male or female dogs were fasted for 8 hours prior to drawing blood; then 30 ml whole blood was collected using a butterfly needle and 30 cc plastic syringe with 3 ml of 0.129 M buffered sodium citrate (3.8%). The syringe was rotated carefully as blood was drawn to mix the citrate. Platelet-rich plasma (PRP) was prepared by centrifugation at 975×g for 3.17 minutes at room temperature, allowing the centrifuge to coast to a stop without braking. The PRP was removed from the blood with a plastic pipette and placed in a plastic capped, 50 ml Corning conical sterile centrifuge tube which was held at room temperature. Platelet poor plasma (PPP) was prepared by centrifuging the remaining blood at 2000×g for 15 minutes at room temperature allowing the centrifuge to coast to a stop without braking. The PRP was adjusted with PPP to a count of 2-3×10^8 platelets per ml. 400 μl of the PRP preparation and 50 μl of the compound to be tested or saline were preincubated for 1 minute at 37° C. in a BioData aggregometer (BioData, Horsham, Pa.). 50 μl of adenosine 5'-diphosphate (ADP) (50 μm final concentration) was added to the cuvettes and the aggregation was monitored for 1 minute. All compounds are tested in duplicate. Results are calculated as follows:
# Percent of control=[(maximal OD minus initial OD of compound) divided by (maximal OD minus initial OD of control saline)]×100. The % inhibition=100-(percent of control).
Structure (SMILES),IC50 [1] [nM],IC50 [2] [nM]
"COC(=O)[C@H](Cc1ccccc1)NC(=O)[C@H](CC(=O)O)NC(=O)CCC(=O)Nc1ccc(C(=N)N)cc1 [Example 1, N-[N-[4-[[4-(aminoiminomethyl)phenyl]-amino]-1,4-dioxobutyl]-L-alpha-aspartyl]-L-phenylalanine, 1-methyl ester]",48,90
"N=C(N)c1ccc(NC(=O)CCC(=O)N[C@@H](CC(=O)O)C(=O)N[C@@H](Cc2ccccc2)C(=O)O)cc1 [Example 2, N-[N-[4-[[4-(aminoiminomethyl)phenyl]amino]-1,4-dioxobutyl]-L-alpha-aspartyl]-L-phenylalanine]",,80
N=C(N)c1ccc(N(Cc2ccccc2)C(=O)CCC(=O)N[C@@H](CC(=O)O)C(=O)N[C@@H](Cc2ccccc2)C(=O)O)cc1 [Example 9],,350
